Experimental data taken from US20080064040A1, “Monitoring gene silencing and annotating gene function in living cells” (Odyssey Thera, Inc., priority 2003, published 2008).

System: phosphorylation of the ERK1 and ERK2 protein kinases
Assay: Phospho-ERK (T202/Tyr204) immunofluorescence in EGF-treated HEK 293T cells
Type: cell-based, human
Conditions: EGF vs unstimulated cells, FIG. 11B
Method: Cells are transfected with a collection of siRNAs, and cultured for 48 hours before fixing. Fixed cells are probed with antibodies that specifically recognize the MAPK/ERK protein kinases only when they are phosphorylated on Threonine 202 and Tyrosine 204 in the activation loop. […] Changes in the level and sub-cellular localization of phosphorylated proteins following treatment with an annotation reagent (here siRNA) indicates a functional connection between the annotation reagent and the target of interest. […] Here, 24 individual siRNA pools were transfected into human HEK cells, and their effects on the phosphorylation of the ERK1 and ERK2 protein kinases was assessed by immunofluorescence analysis.
Human HEK 293T cells were plated at 12,000 cells/well, and transfected with 40 ng of siRNA pools targeting the indicated proteins using Lipofectamine 2000 (Invitrogen, Carlsbad Calif.). 24 hours after transfection, cells were cultured in 0.25% serum for 24 hours, then treated with EGF (Sigma; 100 ng/ml) for 5 minutes prior to fixation. For immunofluorescence, cells were rinsed with PBS, fixed with 4% formaldehyde in PBS, and permeabilized using 0.25% Triton X-100. Non-specific immunoreactivity was blocked by incubating cells with 3% BSA in PBS. […] Automated fluorescence image acquisition was carried out using Discovery-1 (Universal Imaging/Molecular Devices).

EGF: epidermal growth factor (Sigma), stimulus for ERK phosphorylation (NSDSECPLSHDGYCLHDGVCMYIEALDKYACNCVVGYIGERCQYRDLKWWELR; UniProt P01133 971-1023, looked up)
level of phosphorylated ERK after growth factor treatment: large increase in phosphorylated ERK
